Counter-ions that a name gives are not always drawn.
Columns and labels:
[1] = target: T1, β2-receptors on the blood vessels (Rattus norvegicus, UniProt P10608); assay: β2-sympatholytic action: inhibition of Isoproterenol blood pressure reduction, rats under urethane narcosis; format: in vivo; details: for β2-Sympatholytic action R.A. (relative activity): Propranolol = 1.00, intravenous; for Q: quotient defined in footnote 6 (drawing 8), cardioselectivity, β2 versus β1 dose; for ED50: rat, iv, read-out: β2-Sympatholytic action ED 50 (dose which inhibits the Isoproterenol blood pressure reduction by 50%)
T1 construct: was tested on rats, weighing 230-280 g, under urethane narcosis; from tissue; host or cells: blood vessels in the living rat under urethane narcosis (in vivo)

in vivo = details: mouse; for LD50 at 24 h: ip
Method: The acute toxicity was determined on groups of 10 or 20 female Swiss mice weighing 20-26 g, the compounds being administered intraperitoneally.

cardiac β1-receptors = target: T2, cardiac β1-receptors (Rattus norvegicus, UniProt P18090); assay: β1-sympatholytic action: inhibition of Isoproterenol tachycardia, pithed rats; format: in vivo, rats (Sprague-Dawley; details: for β1-Sympatholytic action R.A. (relative activity): Propranolol = 1.00, pithed rats, intravenous; for ED50: rat, iv, 5 min, read-out: β1-Sympatholytic action ED 50 (dose which inhibits the Isoproterenol tachycardia by 50%); for cardiac β1-receptors blocked at doses lower than those required to block β2-receptors / β1-sympatholytic activity greater than that of Propranolol: rats
T2 construct: in pithed rats (Sprague-Dawley, Mus rattus; weight 230-280 g) causes increases in pulse rate; from tissue; host or cells: heart in the living pithed Sprague-Dawley rat (in vivo)
T2 sequence (P18090 whole entry): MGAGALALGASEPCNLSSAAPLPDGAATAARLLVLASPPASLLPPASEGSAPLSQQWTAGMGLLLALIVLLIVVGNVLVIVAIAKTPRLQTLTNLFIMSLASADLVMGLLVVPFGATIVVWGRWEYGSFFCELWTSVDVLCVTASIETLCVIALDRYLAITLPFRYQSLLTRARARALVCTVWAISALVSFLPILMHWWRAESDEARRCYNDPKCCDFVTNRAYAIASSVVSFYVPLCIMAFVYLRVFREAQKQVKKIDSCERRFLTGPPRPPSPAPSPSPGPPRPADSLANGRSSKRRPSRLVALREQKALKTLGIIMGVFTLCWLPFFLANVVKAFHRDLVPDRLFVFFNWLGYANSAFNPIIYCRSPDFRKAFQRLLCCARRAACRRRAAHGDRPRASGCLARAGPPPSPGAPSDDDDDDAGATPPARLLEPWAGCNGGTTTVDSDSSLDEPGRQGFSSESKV

T1 sequence (P10608 whole entry): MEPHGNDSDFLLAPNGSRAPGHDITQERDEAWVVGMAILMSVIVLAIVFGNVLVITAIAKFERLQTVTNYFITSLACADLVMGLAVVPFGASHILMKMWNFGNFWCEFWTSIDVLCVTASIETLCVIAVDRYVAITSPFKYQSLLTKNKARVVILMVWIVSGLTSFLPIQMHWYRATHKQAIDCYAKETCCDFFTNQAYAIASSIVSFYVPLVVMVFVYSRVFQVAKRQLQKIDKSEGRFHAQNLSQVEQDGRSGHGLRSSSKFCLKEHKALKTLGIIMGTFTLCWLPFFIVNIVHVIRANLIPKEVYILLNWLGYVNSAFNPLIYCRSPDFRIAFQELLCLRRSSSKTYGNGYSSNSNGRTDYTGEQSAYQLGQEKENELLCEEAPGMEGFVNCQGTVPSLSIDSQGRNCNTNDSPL

## C#CC(C)(C)NCC(O)COc1cccc2sncc12 (stereo not drawn) [Example 27, 4-[2-Hydroxy-3-(2-methyl-but-3-ynyl-2-amino)-propoxy]-1,2-benzisothiazole]
[1]; rats under urethane narcosis
  β2-Sympatholytic action R.A. (relative activity): 1.98
[1]
  Q: 2.50
  ED50: 5.75 µg/kg
In vivo
  Therapeutic range, relative: 9.11
  selectivity ratio: 80000
  LD50 at 24 h: 184000 µg/kg
Cardiac β1-receptors
  β1-Sympatholytic action R.A. (relative activity): 5.35
  ED50: 2.3 µg/kg

## CC(C)NCC(O)c1ccc(O)c(O)c1 (stereo not drawn) [Isoproterenol, reference compound]
[1]; Isoproterenol 0.215 μg/kg intravenously, rats under urethane narcosis, average
  reduction of mean pressure of the carotid artery: 30%

## CCCC(C)NCC(O)COc1cccc2sncc12 (stereo not drawn) [Example 35, 4-[2-Hydroxy-3-(pentyl-2-amino)-propoxy]-1,2-benziso-thiazole]
[1]; rats under urethane narcosis
  β2-Sympatholytic action R.A. (relative activity): 0.42
[1]
  Q: 10.70
  ED50: 27 µg/kg
In vivo
  Therapeutic range, relative: 2.72
  selectivity ratio: 23900
  LD50 at 24 h: 60300 µg/kg
Cardiac β1-receptors
  β1-Sympatholytic action R.A. (relative activity): 4.88
  ED50: 2.52 µg/kg
  cardiac β1-receptors blocked at doses lower than those required to block β2-receptors: 11 times

## CCC(C)(CC)NCC(O)COc1cccc2sncc12 (stereo not drawn) [Example 16, 4-[2-Hydroxy-3-(3-methyl-pentyl-3-amino)-propoxy]-1,2-benzisothiazole]
[1]; rats under urethane narcosis
  β2-Sympatholytic action R.A. (relative activity): 0.94
[1]
  Q: 3.69
  ED50: 12.1 µg/kg
In vivo
  Therapeutic range, relative: 4.44
  selectivity ratio: 39000
  LD50 at 24 h: 128000 µg/kg
Cardiac β1-receptors
  β1-Sympatholytic action R.A. (relative activity): 3.75
  ED50: 3.28 µg/kg

## CC(C)NCC(O)COc1cccc2sncc12 (stereo not drawn) [Example 1, 4-(2-hydroxy-3-isopropylaminopropoxy)-1,2-benzisothiazole hydrochloride]
[1]; rats under urethane narcosis
  β2-Sympatholytic action R.A. (relative activity): 2.71
[1]
  Q: 2.21
  ED50: 4.2 µg/kg
In vivo
  Therapeutic range, absolute: 32,700
  Therapeutic range, relative: 3.72
  LD50 at 24 h: 62100 µg/kg
Cardiac β1-receptors
  β1-Sympatholytic action R.A. (relative activity): 6.47
  ED50: 1.9 µg/kg
  cardiac β1-receptors blocked at doses lower than those required to block β2-receptors: 2 times

## CCC(C)(C)NCC(O)COc1cccc2sncc12 (stereo not drawn) [Example 15, 4-[2-Hydroxy-3-(2-methyl-butyl-2-amino)-propoxy]-1,2-benzisothiazole]
[1]; rats under urethane narcosis
  β2-Sympatholytic action R.A. (relative activity): 1.38
[1]
  Q: 4.48
  ED50: 8.24 µg/kg
In vivo
  Therapeutic range, relative: 8.92
  selectivity ratio: 78300
  LD50 at 24 h: 144000 µg/kg
Cardiac β1-receptors
  β1-Sympatholytic action R.A. (relative activity): 6.68
  ED50: 1.84 µg/kg

## COCC(C)NCC(O)COc1cccc2sncc12 (stereo not drawn) [Example 29, 4-[2-Hydroxy-3-(1-methoxy-propyl-2-amino)-propoxy]-1,2-benzisothiazole]
[1]; rats under urethane narcosis
  β2-Sympatholytic action R.A. (relative activity): 0.26
[1]
  Q: 8.90
  ED50: 44 µg/kg
In vivo
  Therapeutic range, relative: 3.11
  selectivity ratio: 27300
  LD50 at 24 h: 135000 µg/kg
Cardiac β1-receptors
  β1-Sympatholytic action R.A. (relative activity): 2.48
  ED50: 4.95 µg/kg
  β1-sympatholytic activity greater than that of Propranolol: 2.5 times

## CC(C)(C)NCC(O)COc1cccc2sncc12 (stereo not drawn) [Example 2, 4-(2-hydroxy-3-tert.-butylamino-propoxy)-1,2-benzisothiazole hydrochloride]
[1]; rats under urethane narcosis
  β2-Sympatholytic action R.A. (relative activity): 2.84
[1]
  Q: 2.47
  ED50: 4.02 µg/kg
In vivo
  Therapeutic range, absolute: 94,500
  Therapeutic range, relative: 10.76
  LD50 at 24 h: 154000 µg/kg
Cardiac β1-receptors
  β1-Sympatholytic action R.A. (relative activity): 7.55
  ED50: 1.63 µg/kg

## CCC(C)NCC(O)COc1cccc2sncc12 (stereo not drawn) [Example 14, 4-(2-Hydroxy-3-sec.-butylamino-propoxy)-1,2-benzisothiazole]
[1]; rats under urethane narcosis
  β2-Sympatholytic action R.A. (relative activity): 1.08
[1]
  Q: 6.93
  ED50: 10.6 µg/kg
In vivo
  Therapeutic range, relative: 7.18
  selectivity ratio: 63000
  LD50 at 24 h: 96400 µg/kg
Cardiac β1-receptors
  β1-Sympatholytic action R.A. (relative activity): 8.04
  ED50: 1.53 µg/kg
  β1-sympatholytic activity greater than that of Propranolol: 8 times

Source: patent publication US4168317A, “Amino derivatives of 4-hydroxy-1,2-benzisothiazole” (BASF Aktiengesellschaft, priority 1977, dated 1979)
